Source: patent US20260125371A1, “METHOD FOR INHIBITING CLOSTRIDIOIDES DIFFICILE SPORE GERMINATION” (UNIVERSITY OF NOTRE DAME DU LAC, priority 2022, published 2026)
In brackets after ≈: the same amount, converted by molar mass. Like-named read-outs stand apart in the source and are kept apart here.

Experiments:
C. difficile ATCC 43255 = assay: Determination of minimal-inhibitory concentrations (microdilution), C. difficile ATCC 43255; assay type: cell-based, Clostridioides difficile; settings: for MIC: Clostridioides difficile
S. aureus = assay: MIC against S. aureus strains; assay type: cell-based; settings: S. aureus ATCC 29213, 24 h
C. difficile strains = assay: MIC (microdilution) against panel of 101 C. difficile strains; assay type: cell-based, Clostridioides difficile; settings: Clostridioides difficile
[1] = C. difficile ATCC 43255, 48-h incubation
[2] = ATCC43255, 24 h, C. difficile ATCC 43255, 24 h, read-out: MIC (μg/mL) 24 h
[3] = ATCC43255, 48 h, C. difficile ATCC 43255, 48-h incubation, read-out: MIC (μg/mL) 48 h

## FC(F)(F)c1ccc(Oc2ccc(-c3noc(-c4cc[nH]n4)n3)cc2)cc1 [Compound 25]
C. difficile ATCC 43255; [1]
  MIC (μg/mL) 48 h: >128 µg/mL
C. difficile ATCC 43255; C. difficile ATCC 43255, 24 h
  MIC (μg/mL) 24 h: >128 µg/mL
S. aureus
  MIC (μg/mL) 24 h: >128 µg/mL

## FC(F)(F)c1ccc(Oc2ccc(-c3noc(-c4n[nH]cc4Cl)n3)cc2)cc1 [Compound 26]
C. difficile ATCC 43255; [1]
  MIC (μg/mL) 48 h: >128 µg/mL
C. difficile ATCC 43255; C. difficile ATCC 43255, 24 h
  MIC (μg/mL) 24 h: >128 µg/mL
S. aureus
  MIC (μg/mL) 24 h: 1 µg/mL (≈ 2.46 µM)

## FC(F)(F)c1ccc(Oc2ccc(-c3noc(-c4n[nH]cc4Br)n3)cc2)cc1 [Compound 27]
C. difficile ATCC 43255; [1]
  MIC (μg/mL) 48 h: >128 µg/mL
C. difficile ATCC 43255; C. difficile ATCC 43255, 24 h
  MIC (μg/mL) 24 h: >128 µg/mL
S. aureus
  MIC (μg/mL) 24 h: 1 µg/mL (≈ 2.22 µM)

## c1cc(-c2noc(-c3ccc4c(c3)CCN4)n2)ccc1OC1CCCC1 [Compound 54, 3-(4-(Cyclopentyloxy)phenyl)-5-(indolin-5-yl)-1,2,4-oxadiazole]
C. difficile ATCC 43255; [2]
  MIC: 4 µg/mL (≈ 11.5 µM)
C. difficile ATCC 43255; [3]
  MIC: 8 µg/mL (≈ 23 µM)
C. difficile ATCC 43255; ATCC43255, strain ATCC43255, read-out: MIC
  MIC: 2 µg/mL (≈ 5.76 µM)
C. difficile strains; ATCC43598, strain ATCC43598
  MIC: 2 mg/L (≈ 5.76 µM)
C. difficile strains; BAA1801, strain BAA-1801
  MIC: 4 mg/L (≈ 11.5 µM)
C. difficile strains; BAA1803, strain BAA-1803
  MIC: 2 mg/L (≈ 5.76 µM)
C. difficile strains; BAA1804, strain BAA-1804
  MIC: 2 mg/L (≈ 5.76 µM)
C. difficile strains; BAA1812, strain BAA-1812
  MIC: 2 mg/L (≈ 5.76 µM)
C. difficile strains; BAA1814, strain BAA-1814
  MIC: 4 mg/L (≈ 11.5 µM)
C. difficile strains; BAA1870, strain BAA-1870
  MIC: 4 mg/L (≈ 11.5 µM)
C. difficile strains; strain HM-88
  MIC: 4 mg/L (≈ 11.5 µM)
C. difficile strains; strain HM-89
  MIC: 8 mg/L (≈ 23 µM)
C. difficile strains; strain HM-745
  MIC: 2 mg/L (≈ 5.76 µM)
C. difficile strains; strain HM-746
  MIC: 2 mg/L (≈ 5.76 µM)
C. difficile strains; strain HM-747
  MIC: 1 mg/L (≈ 2.88 µM)
C. difficile strains; strain NR49292
  MIC: 8 mg/L (≈ 23 µM)
C. difficile strains; strain NR49294
  MIC: 2 mg/L (≈ 5.76 µM)
C. difficile strains; strain NR49302
  MIC: 4 mg/L (≈ 11.5 µM)
C. difficile strains; strain NR49305
  MIC: 8 mg/L (≈ 23 µM)
C. difficile strains; strain NR49310
  MIC: 4 mg/L (≈ 11.5 µM)
C. difficile strains; strain NR49318
  MIC: 8 mg/L (≈ 23 µM)
C. difficile strains; strain NR-13427
  MIC: 8 mg/L (≈ 23 µM)
C. difficile strains; strain NR-13428
  MIC: 8 mg/L (≈ 23 µM)
C. difficile strains; strain NR-13429
  MIC: 4 mg/L (≈ 11.5 µM)
C. difficile strains; strain NR-13430
  MIC: 8 mg/L (≈ 23 µM)
C. difficile strains; strain NR-13431
  MIC: 4 mg/L (≈ 11.5 µM)
C. difficile strains; strain NR-13433
  MIC: 4 mg/L (≈ 11.5 µM)
C. difficile strains; strain NR-13434
  MIC: 4 mg/L (≈ 11.5 µM)
C. difficile strains; strain NR-13435
  MIC: 4 mg/L (≈ 11.5 µM)
C. difficile strains; strain NR-13436
  MIC: 8 mg/L (≈ 23 µM)
C. difficile strains; strain NR-13437
  MIC: 8 mg/L (≈ 23 µM)
C. difficile strains; strain NR-13438
  MIC: 8 mg/L (≈ 23 µM)
C. difficile strains; strain NR-13553
  MIC: 4 mg/L (≈ 11.5 µM)
C. difficile strains; strain NR-32882
  MIC: 4 mg/L (≈ 11.5 µM)
C. difficile strains; strain NR-32883
  MIC: 4 mg/L (≈ 11.5 µM)
C. difficile strains; strain NR-32884
  MIC: 4 mg/L (≈ 11.5 µM)
C. difficile strains; strain NR-32885
  MIC: 8 mg/L (≈ 23 µM)
C. difficile strains; strain NR-32886
  MIC: 8 mg/L (≈ 23 µM)
C. difficile strains; strain NR-32887
  MIC: 4 mg/L (≈ 11.5 µM)
C. difficile strains; strain NR-32888
  MIC: 8 mg/L (≈ 23 µM)
C. difficile strains; strain NR-32889
  MIC: 4 mg/L (≈ 11.5 µM)
C. difficile strains; strain NR-32890
  MIC: 4 mg/L (≈ 11.5 µM)
C. difficile strains; strain NR-32891
  MIC: 4 mg/L (≈ 11.5 µM)
C. difficile strains; strain NR-32892
  MIC: 4 mg/L (≈ 11.5 µM)
C. difficile strains; strain NR-32895
  MIC: 8 mg/L (≈ 23 µM)
C. difficile strains; strain NR-32896
  MIC: 4 mg/L (≈ 11.5 µM)
C. difficile strains; strain NR-32897
  MIC: 4 mg/L (≈ 11.5 µM)
C. difficile strains; strain NR-32900
  MIC: 4 mg/L (≈ 11.5 µM)
C. difficile strains; strain NR-32903
  MIC: 2 mg/L (≈ 5.76 µM)
C. difficile strains; strain NR-32904
  MIC: 4 mg/L (≈ 11.5 µM)
C. difficile strains; strain NR-49277
  MIC: 4 mg/L (≈ 11.5 µM)
C. difficile strains; strain NR-49278
  MIC: 4 mg/L (≈ 11.5 µM)
C. difficile strains; strain NR-49279
  MIC: 4 mg/L (≈ 11.5 µM)
C. difficile strains; strain NR-49280
  MIC: 2 mg/L (≈ 5.76 µM)
C. difficile strains; strain NR-49281
  MIC: 4 mg/L (≈ 11.5 µM)
C. difficile strains; strain NR-49282
  MIC: 2 mg/L (≈ 5.76 µM)
C. difficile strains; strain NR-49283
  MIC: 2 mg/L (≈ 5.76 µM)
C. difficile strains; strain NR-49284
  MIC: 4 mg/L (≈ 11.5 µM)
C. difficile strains; strain NR-49285
  MIC: 4 mg/L (≈ 11.5 µM)
C. difficile strains; strain NR-49286
  MIC: 2 mg/L (≈ 5.76 µM)
C. difficile strains; strain NR-49287
  MIC: 4 mg/L (≈ 11.5 µM)
C. difficile strains; strain NR-49288
  MIC: 4 mg/L (≈ 11.5 µM)
C. difficile strains; strain NR-49289
  MIC: 4 mg/L (≈ 11.5 µM)
C. difficile strains; strain NR-49290
  MIC: 4 mg/L (≈ 11.5 µM)
C. difficile strains; strain NR-49291
  MIC: 4 mg/L (≈ 11.5 µM)
C. difficile strains; strain NR-49293
  MIC: 2 mg/L (≈ 5.76 µM)
C. difficile strains; strain NR-49295
  MIC: 4 mg/L (≈ 11.5 µM)
C. difficile strains; strain NR-49296
  MIC: 8 mg/L (≈ 23 µM)
C. difficile strains; strain NR-49297
  MIC: 4 mg/L (≈ 11.5 µM)
C. difficile strains; strain NR-49298
  MIC: 8 mg/L (≈ 23 µM)
C. difficile strains; strain NR-49299
  MIC: 8 mg/L (≈ 23 µM)
C. difficile strains; strain NR-49300
  MIC: 8 mg/L (≈ 23 µM)
C. difficile strains; strain NR-49301
  MIC: 8 mg/L (≈ 23 µM)
C. difficile strains; strain NR-49303
  MIC: 4 mg/L (≈ 11.5 µM)
C. difficile strains; strain NR-49304
  MIC: 8 mg/L (≈ 23 µM)
C. difficile strains; strain NR-49306
  MIC: 4 mg/L (≈ 11.5 µM)
C. difficile strains; strain NR-49307
  MIC: 2 mg/L (≈ 5.76 µM)
C. difficile strains; strain NR-49308
  MIC: 2 mg/L (≈ 5.76 µM)
C. difficile strains; strain NR-49309
  MIC: 8 mg/L (≈ 23 µM)
C. difficile strains; strain NR-49311
  MIC: 4 mg/L (≈ 11.5 µM)
C. difficile strains; strain NR-49312
  MIC: 4 mg/L (≈ 11.5 µM)
C. difficile strains; strain NR-49313
  MIC: 4 mg/L (≈ 11.5 µM)
C. difficile strains; strain NR-49314
  MIC: 4 mg/L (≈ 11.5 µM)
C. difficile strains; strain NR-49315
  MIC: 2 mg/L (≈ 5.76 µM)
C. difficile strains; strain NR-49316
  MIC: 4 mg/L (≈ 11.5 µM)
C. difficile strains; strain NR-49317
  MIC: 2 mg/L (≈ 5.76 µM)
C. difficile strains; strain NR-49319
  MIC: 4 mg/L (≈ 11.5 µM)
C. difficile strains; strain NR-49320
  MIC: 4 mg/L (≈ 11.5 µM)
C. difficile strains; strain NR-49321
  MIC: 4 mg/L (≈ 11.5 µM)
C. difficile strains; strain NR-49323
  MIC: 4 mg/L (≈ 11.5 µM)
C. difficile strains; strain NR-49324
  MIC: 8 mg/L (≈ 23 µM)
C. difficile strains; strain NR-49325
  MIC: 4 mg/L (≈ 11.5 µM)
C. difficile strains; strain NR-49326
  MIC: 8 mg/L (≈ 23 µM)
C. difficile strains; strain NR-49327
  MIC: 8 mg/L (≈ 23 µM)
C. difficile strains; strain NR-49328
  MIC: 8 mg/L (≈ 23 µM)
C. difficile strains; strain NR-49329
  MIC: 8 mg/L (≈ 23 µM)
C. difficile strains; strain RMA23691
  MIC: 2 mg/L (≈ 5.76 µM)
C. difficile strains; strain RMA23828
  MIC: 8 mg/L (≈ 23 µM)
C. difficile strains; strain RMA24531
  MIC: 2 mg/L (≈ 5.76 µM)
C. difficile strains; strain RMA24923
  MIC: 2 mg/L (≈ 5.76 µM)
C. difficile strains; strain RMA26675
  MIC: 8 mg/L (≈ 23 µM)
C. difficile strains; strain RMA27081
  MIC: 8 mg/L (≈ 23 µM)
C. difficile strains; strain RMA27173
  MIC: 4 mg/L (≈ 11.5 µM)
C. difficile strains; C. difficile strains of Table 4, read-out: MIC50
  MIC50: 4 mg/L (≈ 11.5 µM)
C. difficile strains; C. difficile strains of Table 4, read-out: MIC90
  MIC90: 8 mg/L (≈ 23 µM)

## CN1CCC(Oc2ccc(-c3noc(-c4ncc([N+](=O)[O-])[nH]4)n3)cc2)C1.Cl (stereo not shown) [Compound 132, 3-(4-((1-Methylpyrrolidin-3-yl)oxy)phenyl)-5-(5-nitro-1H-imidazol-2-yl)-1,2,4-oxadiazole hydrochloride]
C. difficile ATCC 43255; [2]
  MIC: > 128 µg/mL
C. difficile ATCC 43255; [3]
  MIC: > 128 µg/mL

## CC(C)(C)OC(=O)N1CCC(Oc2ccc(-c3noc(-c4ncc([N+](=O)[O-])[nH]4)n3)cc2)CC1 [Compound 133, 3-(4-((1-(tert-Butoxycarbonyl)piperidin-4-yl)oxy)phenyl)-5-(5-nitro-1H-imidazol-2-yl)-1,2,4-oxadiazole]
C. difficile ATCC 43255; [2]
  MIC: > 128 µg/mL
C. difficile ATCC 43255; [3]
  MIC: > 128 µg/mL

## Cl.O=[N+]([O-])c1c[nH]c(-c2nc(-c3ccc(OC4CCNCC4)cc3)no2)n1 [Compound 134, 5-(4-Nitro-1H-imidazol-2-yl)-3-(4-(piperidin-4-yloxy)phenyl)-1,2,4-oxadiazole hydrochloride]
C. difficile ATCC 43255; [2]
  MIC: > 128 µg/mL
C. difficile ATCC 43255; [3]
  MIC: > 128 µg/mL

## O=C(NNC(=O)c1ccc(OC2CCCC2)cc1)c1ccc(O)cc1 [Compound 138, 4-(Cyclopentyloxy)-N′-(4-hydroxybenzoyl)benzohydrazide]
C. difficile ATCC 43255; [2]
  MIC: > 128 µg/mL
C. difficile ATCC 43255; [3]
  MIC: > 128 µg/mL

## Oc1ccc(-c2nnc(-c3ccc(OC4CCCC4)cc3)o2)cc1 [Compound 139, 4-(5-(4-(Cyclopentyloxy)phenyl)-1,3,4-oxadiazol-2-yl)phenol]
C. difficile ATCC 43255; [1]
  MIC (μg/mL) 48 h: >128 µg/mL
C. difficile ATCC 43255; [2]
  MIC: > 128 µg/mL
